Results on 4 compounds are retold here after patent US4906662A, “Phenol derivatives, their preparation and the use thereof” (Otsuka Pharmaceutical Factory, Inc., priority 1986, dated 1990).

Counter-ions that a name gives are not always drawn.

For assay [1], the system named is carrageenin-induced paw edema. Put plainly: Anti-inflammatory activity: inhibition of carrageenin-induced paw edema in rats. It is filed as in vivo, rat (S.D. strain, male). The settings on record: po; 100 mg/kg p.o.; rat, 3 hours after carrageenin; read-out: Percent inhibition of edema. The protocol: (1) Anti-inflammatory activity:inhibition of carrageenin-induced paw edema in rats The compound was tested for the above activity according to the method of Winter et al. [Proc. Soc. […] One hour after the test compound was orally given to the animal, 0.1 ml of 1% carrageenin solution was subcutaneously injected into the right footpad. The paw volume was measured 3 hours thereafter, and the resulting increase in the volume was calculated based on the volume before the injection of carrageenin solution. The percent inhibition was determined in comparison with the increase in the control group.

In another assay the target is T1, 5-lipoxygenase (Cavia porcellus, UniProt A0A286X958).
T1 construct: endogenous in cells; host or cells: guinea pig peritoneal exudate cells (casein-elicited), intact cell suspension
T1 sequence (A0A286X958 1-674): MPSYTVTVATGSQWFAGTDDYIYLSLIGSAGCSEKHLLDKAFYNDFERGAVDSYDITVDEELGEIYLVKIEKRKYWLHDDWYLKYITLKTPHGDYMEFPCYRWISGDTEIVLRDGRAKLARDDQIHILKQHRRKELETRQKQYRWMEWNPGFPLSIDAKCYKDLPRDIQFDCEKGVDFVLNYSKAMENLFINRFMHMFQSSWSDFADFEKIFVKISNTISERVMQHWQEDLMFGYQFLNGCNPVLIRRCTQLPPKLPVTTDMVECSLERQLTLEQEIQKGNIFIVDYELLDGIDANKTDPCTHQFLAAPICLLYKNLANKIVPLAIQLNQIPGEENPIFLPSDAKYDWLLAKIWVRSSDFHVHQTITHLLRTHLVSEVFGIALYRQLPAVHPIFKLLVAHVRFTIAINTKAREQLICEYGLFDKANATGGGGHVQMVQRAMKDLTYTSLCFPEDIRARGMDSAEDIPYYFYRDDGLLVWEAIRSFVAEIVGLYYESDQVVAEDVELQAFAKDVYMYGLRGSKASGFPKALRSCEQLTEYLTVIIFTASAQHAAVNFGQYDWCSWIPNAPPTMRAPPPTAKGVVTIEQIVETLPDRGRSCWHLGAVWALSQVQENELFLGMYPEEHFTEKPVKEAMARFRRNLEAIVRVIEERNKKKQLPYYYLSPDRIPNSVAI
Description: 5-Lipoxygenase inhibitory activity (5-HETE formation in guinea pig peritoneal exudate cells). The following applies: read-out: Percent inhibition of 5-lipoxygenase. Type of assay: cell-based. The protocol: (J. Biol. Chem., 256, 4156 (1981)) and to the method of Ochi et al. (J. Biol. Chem., 258, 5754 (1983). More specifically, 2% casein was intraperitoneally given to a guinea pig, which was bleeded to death 14 to 16 hours thereafter. The peritoneal cavity was washed to collect exudate cells, which were suspended in a phosphate buffer containing 1 mM CaCl2 and 5.5 mM glucose to a concentration of 2.5×10^7 cells/ml. The cell suspension was incubated at 30° C. for 2 minutes. The test compound was then added to the cell suspension, followed by incubation for 2 minutes. With addition of 10 μM of A23187 first and then 10 μM of ^14 C-arachidonic acid to the resulting suspension. Then, the suspension was incubated for 3 minutes. […] The arachidonic acid, 5(S)-hydroxy-6,8,11,14-eicosatetraenoic acid (5-HETE) and other portions were thereafter scraped off, and ^14 C was counted by a scintillator.

What is called inhibition is the percentage by which the read-out fell short of the control. For the compound `CC(C)(C)c1cc(Nc2ccc(N)cc2)cc(C(C)(C)C)c1O` [Compound 14], in assay [1], the inhibition in vivo at 100 mg/kg came out at 42%. Moreover, on 5-lipoxygenase, the inhibition at 1 µM stood at 15% and the inhibition at 10 µM was 57%.
On to `CC(C)(C)c1cc(Nc2cccc(CO)c2)cc(C(C)(C)C)c1O` [Compound 31, 2,6-di-tert-butyl-4-(3-hydroxymethylphenylamino)phenol hydrochloride], for which the inhibition in vivo at 100 mg/kg in assay [1] turned out to be 33%. Further, at 5-lipoxygenase, the inhibition at 1 µM is 50% and the inhibition at 10 µM was determined as 88%.
Turning to `CC(C)(C)c1cc(Nc2ccccc2CO)cc(C(C)(C)C)c1O` [Compound 32, 2,6-di-tert-butyl-4-(2-hydroxymethylphenylamino)phenol], the inhibition in vivo at 100 mg/kg in assay [1] turned out to be 74%. In addition, on 5-lipoxygenase, the inhibition at 1 µM was determined as 34% and the inhibition at 10 µM stood at 63%.
Regarding `Cc1cc(Nc2ccccc2)c(C)c(C)c1O` [Compound 79, 2,3,6-trimethyl-4-phenylaminophenol], the inhibition in vivo at 100 mg/kg in assay [1] worked out at 47%. Also, on 5-lipoxygenase, the inhibition at 1 µM is 87% and the inhibition at 10 µM amounted to 93%.
